Test results: patent US6683186B2, “2,3-Disubstituted pyridine derivative, process for the preparation thereof, pharmaceutical composition containing the same, and intermediate therefor” (Dainippon Pharmaceutical Company, Limited, priority 1998, dated 2004)
Where a name gives a salt, the structure may show the parent alone. Read-outs that look alike come from different tables or passages of the source.

Assays:
[1] = system: bronchoconstriction of guinea pig induced by the antigen; test: Inhibitory effect on antigen-induced bronchoconstriction (Konzett-Roessler method); assay type: in vivo; settings: sensitized guinea pigs; for inhibition in vivo at 10 mg/kg / inhibition in vivo at 3 mg/kg / inhibition in vivo at 30 mg/kg: Cavia porcellus, po, read-out: Inhibitory Rate; for inhibition in vivo at 3 mg/kg: 3 mg/kg orally; for inhibition in vivo at 30 mg/kg: 30 mg/kg orally
Description: Hartley male guinea pigs were actively sensitized by intraperitoneally administering an ovalbumin (manufacture by Sigma). Four weeks thereafter, the animals were anesthetized with Nembutal (50 mg/kg, i.p., manufactured by Dainabot Co., Ltd.), and a cannual was inserted at the airway, and the bronchoconstriction response of the animals under artificial respiration was observed. The response of the airway was measured by Konzett-Roessler method (Naunyn-Schmiedebergs, Aech. Exp. Pathol. Pharmacol., vol. 195, p. 71 (1940)). A test compound (the compounds of Examples of the present invention as listed in Table 3) was orally administered to the animals one hour prior to the administration of the antigen (i.e., ovalbumin, 0.05%/physiological saline solution, i.v.). Only the compound of Example 31 was orally administered 2 hours prior to the administration of the antigene. The inhibitory rate (%) caused by the test compound was calculated by comparing the bronchoconstriction response of the test compound-treated group with that of the control group to which only a solvent was administered.

[2] = system: PDE IV isolated and purified from guinea pig eosinophils; test: PDE IV inhibitory activity test; assay type: biochemical; settings: hydrolysis of cAMP by enzyme preparation from guinea pig eosinophils; read-out: 50% Inhibitory Concentration
Description: The PDE IV inhibitory activity test was carried out according to a method using cosinophils prepared from the abdomen of guinea pig (Souness, J. E. et al., Biochem. Pharmacol. vol. 42, p. 937 (1991)). That is, a homogenizing buffer (10 ml, components: 20 mM Tris-HCl buffer (pH 7.5); 2 mM magnesium chloride; 1 mM dithiothreitol, 5 mM ethylenediamine tetraacetate disodium; 250 mM sucrose; 20 μM p-tosyl-l-lysine-chloromethylketone; 10 μg/ml Leupeptine) was added to 5×10^7 cells, and the mixture was centrifuged. To the residue was added a solubilizing buffer (10 ml, sodium deoxycholate (final concentration: 0.5%) and sodium chloride (final concentration: 100 mM) were added to the above homogenizing buffer), and the mixture was centrifuged again. The supernatant was subjected to ultrafiltration using Molcut-II (manufactured by Japan Millipore Limited), and the fraction on the membrane was collected by adding a homogenizing buffer (10 ml) to give an enzyme preparation. Inhibitory activity against the enzyme was determined by comparing the hydrolysis rates of a substrate, cAMP (manufactured by Nacalai Tesque Inc.), by the above enzyme fraction between in the test compound-treated group and the vehicle group.

acute toxicity test = assay type: in vivo; settings: dose of 2000 mg/kg
Text: Besides, the present compounds (I) of the present invention are low toxic.

[3] = 1 h, 10 mg/kg orally, one hour prior to antigen (ovalbumin i.v.)
[4] = 1 h, one hour prior to antigen (ovalbumin i.v.)
[5] = 2 hours prior to antigen (ovalbumin i.v.)

Row | SMILES | IC50 [2] | inhibition in vivo at 10 mg/kg [1, 3] | also measured
1 | Oc1cnccc1CCCOc1cccnc1Nc1cccc(Br)c1 [Example 46, 2-(3-bromoanilino)-3-[3-(3-hydroxypyridin-4-yl)propoxy]-pyridine] | – | 45.7% | –
2 | c1ccc(Sc2ncccc2OCCCc2ccncc2)cc1 [Example 15] | 9.7 nM | – | melting point: 41 to 43 °C
3 | Oc1cnccc1CCCOc1cccnc1Sc1cccc(Br)c1 [Example 26, 2-(3-bromophenylthio)-3-[3-(3-hydroxypyridin-4-yl)-propoxy]pyridine] | – | 48.3% | –
4 | Oc1cnccc1CCCOc1cccnc1Oc1cccc(Cl)c1 [Example 31, 2-(3-chlorophenoxy)-3-[3-(3-hydroxypyridin-4-yl)-propoxy]pyridine] | 15.7 nM | – | toxicity in acute toxicity test (acute toxicity test): never showed any toxicity; inhibition in vivo at 3 mg/kg [1, 5]: 39%; inhibition in vivo at 10 mg/kg ([1]; 10 mg/kg orally, 2 hours prior to antigen (ovalbumin i.v.)): 66%; inhibition in vivo at 30 mg/kg [1, 5]: 69%
5 | CC(=O)Oc1cnccc1CCCOc1cccnc1Cc1cccc(Br)c1 [Example 57, 2-(3-bromobenzyl)-3-[3-(3-acetoxypyridin-4-yl)propoxy]-pyridine.1.5 fumarate] | 22.9 nM | – | –
6 | CC(=O)Oc1cnccc1CCCOc1cccnc1Oc1ccccc1 [Example 56, 2-phenoxy-3-[3-(3-acetoxypyridin-4-yl)propoxy]pyridine] | 5.6 nM | – | –
7 | Oc1cccc(Sc2ncccc2OCCCc2ccncc2)c1 [Example 13, 2-(3-hydroxyphenylthio)-3-[3-(pyridin-4-yl)propoxy]pyridine] | – | – | melting point: 158 to 159 °C
8 | N#Cc1cccc(Oc2ncccc2OCCCc2ccncc2O)c1 [Example 28, 2-(3-cyanophenoxy)-3-[3-(3-hydroxypyridin-4-yl)-propoxy]pyridine] | – | 54% | –
9 | CCOC(=O)c1cccc(Oc2ncccc2OCCCc2ccncc2O)c1.CCOC(=O)c1cccc(Oc2ncccc2OCCCc2ccncc2O)c1.O=C(O)/C=C/C(=O)O [Example 29, 2-(3-ethoxycarbonylphenoxy)-3-[3-(3-hydroxypyridin-4-yl)propoxy]pyridine.0.5 fumarate] | – | – | Inhibitory Rate ([1]; 10 mg/kg orally, one hour prior to antigen (ovalbumin i.v.)): 42%
10 | Brc1cccc(Sc2ncccc2OCCCc2ccncc2)c1 [Example 7, 2-(3-bromophenylthio)-3-[3-(pyridin-4-yl)propoxy]pyridine] | 33.7 nM | 77.2% | melting point: 89 to 90 °C
11 | COc1ccc(C(=O)Nc2c(Cl)cncc2Cl)cc1OC1CCCC1 [RP-73401, reference compound] | 0.18 nM | – | –
12 | COc1ccc(C2CNC(=O)C2)cc1OC1CCCC1 (stereo not shown) [Rolipram, reference compound] | 28.4 nM | – | –
13 | CC(=O)Oc1cnccc1CCCOc1cccnc1Oc1cccc(Cl)c1 [Example 54, 2-(3-chlorophenoxy)-3-[3-(3-acetoxypyridin-4-yl)propoxy]-pyridine.monofumarate] | 63.3 nM | 33% | –
14 | COc1ccc([C@]2(C#N)CC[C@@H](C(=O)O)CC2)cc1OC1CCCC1 [SB-207499, reference compound] | 11 nM | – | –

Now from value to compound, other results behind:

Row | IC50 [2] | SMILES | inhibition in vivo at 10 mg/kg [1, 3] | also measured
15 | 23.4 nM | COC(=O)c1cccc(Oc2ncccc2OCCCc2ccncc2)c1 [Example 53, 2-(3-methoxycarbonylphenoxy)-3-[3-(pyridin-4-yl)-propoxy]pyridine] | – | –
16 | 150 nM | CS(=O)(=O)Nc1cnccc1CCCOc1cccnc1Oc1cccc(Cl)c1 [Example 70, 2-(3-chlorophenoxy)-3-[3-(3-methylsulfonylaminopyridin-4-yl)propoxy]pyridine] | – | –
17 | 14.2 nM | Oc1cnccc1CCCOc1cccnc1Oc1cccc(Br)c1 [Example 32, 2-(3-bromophenoxy)-3-[3-(3-hydroxypyridin-4-yl)-propoxy]pyridine] | 70% | inhibition in vivo at 3 mg/kg [1, 4]: 34%; inhibition in vivo at 30 mg/kg [1, 4]: 72%
18 | 34.6 nM | Oc1cnccc1CCCOc1cccnc1Oc1cccc(F)c1 [Example 44, 2-(3-fluorophenoxy)-3-[3-(3-hydroxypyridin-4-yl)-propoxy]pyridine] | 55% | –
19 | 25.8 nM | Brc1cccc(Oc2ncccc2OCCCc2ccncc2)c1 [Example 35, 2-(3-bromophenoxy)-3-[3-(pyridin-4-yl)propoxy]pyridine] | 49.3% | –
20 | 20.5 nM | Fc1cccc(Oc2ncccc2OCCCc2ccncc2)c1 [Example 39, 2-(3-fluorophenoxy)-3-[3-(pyridin-4-yl)propoxy]pyridine] | 66.3% | melting point: 117 to 118 °C
21 | 35.6 nM | Brc1cccc(Sc2ncccc2OCCCc2cccnc2)c1 [Example 3, 2-(3-bromophenylthio)-3-[3-(pyridin-3-yl)propoxy]-pyridine] | 59.9% | –
22 | 26.8 nM | c1ccc(Oc2ncccc2OCCCc2ccncc2)cc1 [Example 37, 2-phenoxy-3-[3-(pyridin-4-yl)propoxy]pyridine] | 49.6% | melting point: 97 to 98 °C
23 | 200 nM | Oc1cncc(Cl)c1CCCOc1cccnc1Oc1cccc(Cl)c1 [Example 73, 2-(3-chlorophenoxy)-3-[3-(3-chloro-5-hydroxypyridin-4-yl)propoxy]pyridine] | – | –
24 | 41.2 nM | Nc1cncc(O)c1CCCOc1cccnc1Oc1cccc(Cl)c1 [Example 69, 2-(3-chlorophenoxy)-3-[3-(3-amino-5-hydroxypyridin-4-yl)propoxy]pyridine.1.0 fumarate] | – | –
25 | 15.3 nM | COc1cccc(Sc2ncccc2OCCCc2ccncc2)c1 [Example 14] | – | melting point: 84 to 85 °C
26 | 38.6 nM | N#Cc1cccc(Oc2ncccc2OCCCc2ccncc2)c1 [Example 41, 2-(3-Cyanophenoxy)-3-[3-(pyridin-4-yl)propoxy]pyridine] | – | melting point: 112 to 113 °C
27 | 85.6 nM | Oc1cncc(CCCOc2cccnc2Oc2cccc(Cl)c2)c1 [Example 65, 2-(3-chlorophenoxy)-3-[3-(5-hydroxypyridin-3-yl)-propoxy]pyridine] | – | –
28 | 18.3 nM | Brc1cccc(Oc2ncccc2OCCCc2cccnc2)c1 [Example 40] | 45.3% | melting point: 46 to 48 °C
29 | 11 nM | Oc1cnccc1CCCOc1cccnc1Oc1ccccc1 [Example 30, 2-phenoxy-3-[3-(3-hydroxypyridin-4-yl)propoxy]pyridine] | 46.5% | –
